Reference: patent US20150290232A1, “DRUG COMPOSITION FOR TREATING TUMORS AND APPLICATION THEREOF” (priority 2012, published 2015)

Legend:
Format in all cases: cell-based
[1] = system: k562/ADR leukemia cells (drug-resistant chronic myeloid leukemia); assay: MTT cell viability, leukemia cells, TTD and Acla A alone and combined; conditions: Homo sapiens, k562/ADR, 72 h, MTT
Description: (§1) Well-growing leukemia cells were obtained and inoculated into wells of a 96-well cell culture plate at 5000 cells/well. Individual compounds of various concentrations were added, mixed uniformly, and incubated (5% CO2) at 37° C. for 72 hours. Then the cell viability was determined by the MTT method.
(§2) b) Determine the inhibitory effects of TTD in combination with Ada A on leukemia cells in vitro. The pretreatment of the cells was the same as in a). The control group was not treated with the compound while administered. […] After 72 hours of incubation, the MTT method was used for the determination of cell viability. The cell viability of the control group was set to 100% in this experiment, and the TTD, Ada A single drug and combined effects on cell viability (%) were calculated.

[2] = system: Jurkat cells (acute lymphoblastic leukemia); assay: as above; conditions: Homo sapiens, 72 h, MTT
Description: as §1, §2

[3] = system: kasumi-1 cells (acute myeloid leukemia M2 type); assay: as above; conditions: Homo sapiens, 72 h, MTT
Description: as §1, §2

[4] = system: CaES-17 (esophageal cancer cell); assay: MTT cell viability, human solid tumor cells
Description: (§3) Well-growing cells of above were obtained and inoculated into wells of a 96-well cell culture plate at 5000 cells/well. Individual compounds of various concentrations were added, mixed uniformly, and incubated (5% CO2) at 37° C. for 72 hours. Then the cell viability was determined by the MTT method.
(§4) b) Determine the inhibitory effects of TTD in combination with Ada A on the human solid tumor cells. The pretreatment of the cells was the same as in a). The control group was not treated with the compound while administered. The two single-drug groups were added with respective active component to the concentration under which the IC50 of two compounds in a) achieve. As to the combination group, two compounds were added together into the same group of wells, with the fmal concentration being the concentration to which the IC50 of the single drugs correspond. After 72 hours of incubation, the MTT method was used for the determination of cell viability. The cell viability of the control group was set to 100% in this experiment, and the TTD, Ada A single drug and combined effects on cell viability (%) were calculated.

[5] = system: RKO (human colon adenocarcinoma cell); assay: MTT cell viability, human solid tumor cells; conditions: RKO, 72 h, MTT
Description: as §3
as §4, with “The two single-drug groups were added with respective active component to the concentration under which the IC50 of two compounds in a) achieve.” left out

[6] = system: Becap-37 (human breast cancer cell); assay: MTT cell viability, human solid tumor cells; conditions: 72 h, MTT
Description: as §3
as §4, with “The two single-drug groups were added with respective active component to the concentration under which the IC50 of two compounds in a) achieve.” left out

[7] = system: Hela (human cervical cancer cell); assay: MTT cell viability, human solid tumor cells; conditions: Hela, 72 h, MTT
Description: as §3
as §4, with “The two single-drug groups were added with respective active component to the concentration under which the IC50 of two compounds in a) achieve.” left out

[8] = system: Hep G2 (human hepatoma carcinoma cell); assay: MTT cell viability, human solid tumor cells; conditions: 72 h, MTT
Description: as §3
as §4, with “The two single-drug groups were added with respective active component to the concentration under which the IC50 of two compounds in a) achieve.” left out

[9] = system: Hep2 (laryngeal carcinoma); assay: MTT cell viability, human solid tumor cells; conditions: 72 h, MTT
Description: as §3
as §4, with “The two single-drug groups were added with respective active component to the concentration under which the IC50 of two compounds in a) achieve.” left out

[10] = system: Panc-1 (pancreatic cancer); assay: MTT cell viability, human solid tumor cells; conditions: 72 h, MTT
Description: as §3
as §4, with “The two single-drug groups were added with respective active component to the concentration under which the IC50 of two compounds in a) achieve.” left out

[11] = system: MGC-803 (human gastric cancer cell); assay: MTT cell viability, human solid tumor cells; conditions: 72 h, MTT
Description: as §3
as §4, with “The two single-drug groups were added with respective active component to the concentration under which the IC50 of two compounds in a) achieve.” left out

[12] = system: MG63 (osteosarcoma); assay: MTT cell viability, human solid tumor cells; conditions: 72 h, MTT
Description: as §3
as §4, with “The two single-drug groups were added with respective active component to the concentration under which the IC50 of two compounds in a) achieve.” left out

[13] = system: SK-OV-3 (ovarian cancer cell); assay: MTT cell viability, human solid tumor cells; conditions: 72 h, MTT
Description: as §3
as §4, with “The two single-drug groups were added with respective active component to the concentration under which the IC50 of two compounds in a) achieve.” left out

[14] = system: SPC-A-1 (human lung adenocarcinoma cell); assay: MTT cell viability, human solid tumor cells; conditions: 72 h, MTT
Description: as §3
as §4, with “The two single-drug groups were added with respective active component to the concentration under which the IC50 of two compounds in a) achieve.” left out

[15] = system: U87-MG (malignant glioma cell); assay: MTT cell viability, human solid tumor cells; conditions: U-87 MG, U87-MG, 72 h, MTT
Description: as §3
as §4, with “The two single-drug groups were added with respective active component to the concentration under which the IC50 of two compounds in a) achieve.” left out

[16] = system: CNE (nasopharyngeal carcinoma cell); assay: MTT cell viability, human solid tumor cells; conditions: CNE, 72 h, MTT
Description: as §3
as §4, with “The two single-drug groups were added with respective active component to the concentration under which the IC50 of two compounds in a) achieve.” left out

[17] = system: PC-3 (prostate cancer); assay: MTT cell viability, human solid tumor cells; conditions: 72 h, MTT
Description: as §3
as §4, with “The two single-drug groups were added with respective active component to the concentration under which the IC50 of two compounds in a) achieve.” left out

[18] = system: A549 (human lung cancer); assay: MTT cell viability, human solid tumor cells; conditions: 72 h, MTT
Description: as §3
as §4, with “The two single-drug groups were added with respective active component to the concentration under which the IC50 of two compounds in a) achieve.” left out

[19] = system: Huh7 (human liver cancer cell); assay: MTT cell viability, human solid tumor cells; conditions: 72 h, MTT
Description: as §3
as §4, with “The two single-drug groups were added with respective active component to the concentration under which the IC50 of two compounds in a) achieve.” left out

[20] = single compound, read-out: concentration (IC50 value of 72 hours)

## COc1ccc2cc1Oc1ccc(cc1)C[C@H]1c3cc(c(OC)cc3CCN1C)Oc1c(OC)c(OC)cc3c1[C@H](C2)N(C)CC3 [TTD, tetrandrine]
[1]; TTD 0.6 μg/mL, control = 100%, read-out: CV (cell viability)
  viability at 0.6 µg/mL: 48%
[1]; [20]
  IC50: 0.6 µg/mL
[2]; TTD 1.69 μg/mL, control = 100%, read-out: CV (cell viability)
  viability at 1.69 µg/mL: 52.3%
[2]; [20]
  IC50: 1.69 µg/mL
[3]; kasumi-1, TTD 2 μg/mL, control = 100%, read-out: CV (cell viability)
  viability at 2 µg/mL: 51.7%
[3]; kasumi-1, single compound, read-out: concentration (IC50 value of 72 hours)
  IC50: 2 µg/mL
[4]; CaEs17, 72 h, read-out: CV (cell viability)
  viability at 3.59 µg/mL: 47.1%
[4]; CaEs17, CaES-17, single compound, 72 h, MTT, read-out: concentration (IC50 value of 72 hours)
  IC50: 3.59 µg/mL
[5]; TTD 1.5 μg/mL, control = 100%, read-out: CV (cell viability)
  viability at 1.5 µg/mL: 45.3%
[5]; [20]
  IC50: 1.5 µg/mL
[6]; Becap-37, TTD 3 μg/mL, control = 100%, read-out: CV (cell viability)
  viability at 3 µg/mL: 56.1%
[6]; Becap-37, single compound, read-out: concentration (IC50 value of 72 hours)
  IC50: 3 µg/mL
[7]; TTD 1.25 μg/mL, control = 100%, read-out: CV (cell viability)
  viability at 1.25 µg/mL: 47%
[7]; [20]
  IC50: 1.25 µg/mL
[8]; HepG2, Hep G2, TTD 1.5 μg/mL, control = 100%, read-out: CV (cell viability)
  viability at 1.5 µg/mL: 52.5%
[8]; HepG2, Hep G2, single compound, read-out: concentration (IC50 value of 72 hours)
  IC50: 1.5 µg/mL
[9]; HEp-2, Hep2, TTD 2.59 μg/mL, control = 100%, read-out: CV (cell viability)
  viability at 2.59 µg/mL: 43.8%
[9]; HEp-2, Hep2, single compound, read-out: concentration (IC50 value of 72 hours)
  IC50: 2.59 µg/mL
[10]; Panc-1, TTD 4.67 μg/mL, control = 100%, read-out: CV (cell viability)
  viability at 4.67 µg/mL: 52.3%
[10]; Panc-1, single compound, read-out: concentration (IC50 value of 72 hours)
  IC50: 4.67 µg/mL
[11]; MGC-803, TTD 3 μg/mL, control = 100%, read-out: CV (cell viability)
  viability at 3 µg/mL: 50.9%
[11]; MGC-803, single compound, read-out: concentration (IC50 value of 72 hours)
  IC50: 3 µg/mL
[12]; MG-63, MG63, TTD 2 μg/mL, control = 100%, read-out: CV (cell viability)
  viability at 2 µg/mL: 40.8%
[12]; MG-63, MG63, single compound, read-out: concentration (IC50 value of 72 hours)
  IC50: 2 µg/mL
[13]; SK-OV-3, TTD 5 μg/mL, control = 100%, read-out: CV (cell viability)
  viability at 5 µg/mL: 55.9%
[13]; SK-OV-3, single compound, read-out: concentration (IC50 value of 72 hours)
  IC50: 5 µg/mL
[14]; SPCA1, SPC-A-1, TTD 3.5 μg/mL, control = 100%, read-out: CV (cell viability)
  viability at 3.5 µg/mL: 52.5%
[14]; SPCA1, SPC-A-1, single compound, read-out: concentration (IC50 value of 72 hours)
  IC50: 3.5 µg/mL
[15]; TTD 2.37 μg/mL, control = 100%, read-out: CV (cell viability)
  viability at 2.37 µg/mL: 47.7%
[15]; [20]
  IC50: 2.37 µg/mL
[16]; TTD 3 μg/mL, control = 100%, read-out: CV (cell viability)
  viability at 3 µg/mL: 51.9%
[16]; [20]
  IC50: 3 µg/mL
[17]; PC-3, TTD 4.5 μg/mL, control = 100%, read-out: CV (cell viability)
  viability at 4.5 µg/mL: 47%
[17]; PC-3, single compound, read-out: concentration (IC50 value of 72 hours)
  IC50: 4.5 µg/mL
[18]; A549, TTD 8.34 μg/mL, control = 100%, read-out: CV (cell viability)
  viability at 8.34 µg/mL: 47.6%
[18]; A549, single compound, read-out: concentration (IC50 value of 72 hours)
  IC50: 8.34 µg/mL
[19]; Huh-7, Huh7, TTD 3 μg/mL, control = 100%, read-out: CV (cell viability)
  viability at 3 µg/mL: 54%
[19]; Huh-7, Huh7, single compound, read-out: concentration (IC50 value of 72 hours)
  IC50: 3 µg/mL
